This assay deals with patients with PH associated with PF (PH-PF). As to the kind of experiment: Acute escalating doses of pulsed iNO; hemodynamics by right heart catheterization (RHC) in PH-PF patients. The format is in vivo, human. Conditions: for Pulmonary arterial compliance (PAC), change from baseline: nine PH-PF patients on oxygen, median change. The protocol:
FIG. 1 depicts the study design for acute iNO dose escalation. Nine PH-PF subjects were administered escalating doses of pulsed iNO (iNO30 to iNO75 mcg/kg IBW/hrs) with continuous oxygen.
FIG. 2, comprising FIGS. 2A-2C, are graphs depicting pulmonary arterial compliance, or PAC (FIG. 2A), pulmonary vascular resistance, or PVR (FIG. 2B), and mean pulmonary arterial pressure, or mPAP (FIG. 2C) for inhaled nitric oxide at 30 mcg/kg IBW/hr (iNO30), 45 mcg/kg IBW/hr (iNO45), and 75 mcg/kg IBW/hr (iNO75). The data is based on nine pulmonary hypertension—interstitial lung disease (ILD) patients. Bar graphs represent median change from baseline at each assessment for all available subjects. […] Statistical analysis was based on the Wilcoxon Rank Test.
This study was performed to determine whether increasing doses of pulsed iNO can improve PAC in patients with PH-PF on long-term oxygen therapy with intermediate or high probability of pulmonary hypertension (PH) as determined by echocardiography. Nine patients were acutely challenged with escalating doses of iNO (iNO30, iNO45, and iNO75) over a 90 minute period. Each dose was administered for 10 minutes, with 10 minute “washout” periods between doses. Baseline measurements were taken from timepoint 0-30 minutes. iNO30 was dosed at 30 mcg/kg IBW/hrs from timepoint 30-40 minutes, iNO45 at 45 mcg/kg IBW/hrs from timepoint 50-60 minutes, and iNO75 was dosed at 75 mcg/kg IBW/hrs from timepoint 70-80 minutes (see FIG. 1). The demographics of the patient population is described in Table 1, and Baseline Hemodynamics in Table 2, below.
PAC was derived by stroke volume divided by (SPAP-DPAP) collected during right heart catheterization (RHC). Patients were on sufficient supplemental oxygen at baseline to maintain an SpO2 of at least 92% at rest. Upon completion of the RHC, subjects were offered the opportunity to continue on to chronic iNO therapy in an extension study. 6 minute walk distance (6MWD) was assessed prior to RHC treatment in the extension study.

Where [1] appears, read: all subjects, doses not separated.
The mark [2] stands for this setting: iNO30 (30 mcg/kg IBW/hr, pulsed, 10 min), nine PH-PF patients, Wilcoxon Rank Test.
The mark [3] stands for this setting: iNO45 (45 mcg/kg IBW/hr, pulsed, 10 min), nine PH-PF patients, Wilcoxon Rank Test.
[4] abbreviates: iNO75 (75 mcg/kg IBW/hr, pulsed, 10 min), nine PH-PF patients, Wilcoxon Rank Test.

“Also recorded” adds a separate entry of the source.

These results are taken from US20230067942A1, “IMPROVEMENT IN PULMONARY ARTERIAL […] INHALED NITRIC OXIDE (iNO) TREATMENT” (BELLEROPHON THERAPEUTICS, priority 2020, published 2023).

For `[N]=O` [iNO, nitric oxide], the “PAC on pulsed iNO versus average baseline” value is “increase” under setting [1] and “improves PAC” (all subjects, doses not separated, listed as Inhaled NO). Also, under setting [1], the “PVR on pulsed iNO versus average baseline” value was “reduction; also recorded: statistically and clinically significant improvements”. The “mPAP on pulsed iNO versus average baseline” value under setting [1] is “statistically and clinically significant improvements; also recorded: reduction”. The “Pulmonary arterial compliance (PAC), change from baseline” value runs as follows: (iNO30 (30 mcg/kg IBW/hr, pulsed, 10 min), Wilcoxon Rank Test) “improved with significance”; (iNO45 (45 mcg/kg IBW/hr, pulsed, 10 min), Wilcoxon Rank Test) “improved with significance”; (iNO75 (75 mcg/kg IBW/hr, pulsed, 10 min), Wilcoxon Rank Test) “improvement in PAC”. Moreover, the “Mean pulmonary arterial pressure (mPAP), change from baseline” value by setting is: under setting [2], “statistically significant improvement; also recorded: improved with significance”; under setting [3], “statistically significant improvement; also recorded: improved with significance”; under setting [4], “statistically significant improvement; also recorded: improved with significance”. Moreover, the “Pulmonary vascular resistance (PVR), change from baseline” value under setting [2] is “statistically significant improvement; also recorded: improved with significance”; the “Pulmonary vascular resistance (PVR), change from baseline” value under setting [3] is “statistically significant improvement; also recorded: improved with significance”; the “Pulmonary vascular resistance (PVR), change from baseline” value under setting [4] is listed as “statistically significant improvement; also recorded: improved with significance”. Further, the “Pulmonary vascular resistance (PVR), further change between iNO30 and iNO45 doses” value (iNO45 versus iNO30, nine PH-PF patients, Wilcoxon Rank Test) is reported as “additional statistically significant improvement; also recorded: further improved with significance”.
